Like-named read-outs stand apart in the source and are kept apart here.
Columns and labels:
NIH3T3 = assay: In vitro cytotoxicity, IC50 by MTT method, NIH3T3; assay type: cell-based
Description: (§1) Culture medium powder RPMI1640 was dissolved in a proper amount of tri-distilled water according to the instruction of the product. […] It was the basic culture solution. The complete culture solution was added with FBS having a final concentration of 10%, 100 U/ml penicillin and 100 µg/ml streptomycin. The solution was fully stirred by a magnetic blender, and the pH of the solution was adjusted to 6.8-7.0. The volume was kept constant. After being filtered and disinfected, the solution was kept into several containers which were sealed and stored at 4° C.
(§2) The cells were placed in a culture dish followed by the addition of complete culture liquid RPMI1640 and then cultured in a incubator comprising 5% CO2 at 37° C. In the exponential growth phase, the cells grew vigorously. If the culture liquid became yellow, the liquid should be replaced instantly.
(§3) The cells, at a concentration of 10^5/ml, were inoculated at a 96-pore culture plate. In each pore, 100 μl cells were inoculated. The cells were placed in a CO2 incubator until the cells were in the logarithmic growth phase. The samples to be tested were added according to the preset concentration gradient. For each gradient, the test was conducted at least three times. An equivalent amount of solvent for dissolving the samples was added in the control group. After 48 h of culture, each pore was added 20 μl MTT (5 mg/ml). The cells were cultured at 37° C. for 4 h. After the supernatant was carefully removed, 100 μl DMSO was added in each pore. The plate was agitated for about 10 minutes such that the precipitates were dissolved. After that, OD value was identified with a Microplate Reader at the wavelength of 490 nm. The survival rate of the cells at various concentrations was calculated according to the following formula:
(§4) Survival rate %=average OD value of the sample group/average OD value of the control group×100%
(§5) Plots of log survival rate of the cells vs. concentration of the medicament were constructed, and the IC50 value of each sample was calculated according to graphing methods.

Hela = assay: In vitro cytotoxicity, IC50 by MTT method, Hela; assay type: cell-based
Description: as §1, §2, §3, §4, §5

Lovo = assay: In vitro cytotoxicity, IC50 by MTT method, Lovo; assay type: cell-based
Description: as §1, §2, §3, §4, §5

Lewis lung cancer = details: for Body weight of the animals, end, First time: ip × 10qd;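 for all read-outs here: mice implanted subcutaneously in the axilla with Lewis lung tumor cells, treated starting the following day, killed roughly three weeks after implantation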
S180 sarcoma = details: S180 sarcoma; for Body weight of the animals, beginning, First time / Body weight of the animals, end, First time / Inhibition rate, First time / Weight of the tumor X ± SD, First time: ip × 10qd
HepG2 = assay: In vitro cytotoxicity, IC50 by MTT method, HepG2; assay type: cell-based, human
Description: as §1, §2, §3, §4, §5

BGC-823 = assay: In vitro cytotoxicity, IC50 by MTT method, BGC-823; assay type: cell-based
Description: as §1, §2, §3, §4, §5

Bel-7402 = assay: In vitro cytotoxicity, IC50 by MTT method, Bel-7402; assay type: cell-based
Description: as §1, §2, §3, §4, §5

PLA-801 = assay: In vitro cytotoxicity, IC50 by MTT method, PLA-801; assay type: cell-based
Description: as §1, §2, §3, §4, §5

[1] = Mus musculus, NIH3T3, MTT, read-out: IC50
[2] = Homo sapiens, Hela, MTT, read-out: IC50
[3] = Homo sapiens, Lovo, MTT, read-out: IC50
[4] = Lewis lung cancer, Dosage 50, ip × 10qd
[5] = Lewis lung cancer, Dosage 100, ip × 10qd
[6] = Homo sapiens, HepG2, MTT, read-out: IC50
[7] = Homo sapiens, BGC-823, BGC823, MTT, read-out: IC50
[8] = Homo sapiens, Bel-7402, BeI7402, MTT, read-out: IC50
[9] = NIH3T3 cell strain, read-out: IC50 NIH3T3
[10] = Hela cell strain, read-out: IC50 Hela
[11] = Lovo cell strain, read-out: IC50 Lovo
[12] = HepG2 cell strain, read-out: IC50 HepG2
[13] = BGC823 cell strain, read-out: IC50 BGC823
[14] = Bel7402 cell strain, read-out: IC50 Bel7402
[15] = PLA-801 cell strain, read-out: IC50 PLA-801

Row | Molecule | IC50 (NIH3T3; [1]) | IC50 (Hela; [2]) | IC50 (Lovo; [3]) | IC50 (HepG2; [6]) | IC50 (BGC-823; [7]) | IC50 (Bel-7402; [8]) | IC50 (PLA-801; PLA-801, MTT, read-out: IC50) | IC50 (NIH3T3; [9]) | IC50 (Hela; [10]) | IC50 (Lovo; [11]) | IC50 (HepG2; [12]) | IC50 (BGC-823; [13]) | IC50 (Bel-7402; [14]) | IC50 (PLA-801; [15]) | also measured
1 | COC(=O)c1cc2c([nH]c3ccccc32)c(-c2ccccc2)n1 [Compound 14, methyl 1-phenyl-β-carboline-3-carboxylate] | 490 µM | 320 µM | 2480 µM | 1180 µM | 1680 µM | > 5000 µM | 1900 µM | – | – | – | – | – | – | – | Anti-tumor activity compared with harmine (compound 1) (Lewis lung cancer; Lewis lung cancer in mice, among 22 compounds tested): a little worse than or equivalent to that of harmines; Body weight of the animals, end, First time (Lewis lung cancer; Lewis lung cancer, Dosage 50 (mg/ml)): 23.8 g; Body weight of the animals, beginning, First time (Lewis lung cancer; [4]): 20.1 g; Inhibition rate, First time (Lewis lung cancer; [4]): 27.57%; Weight of the tumor X ± SD, First time (Lewis lung cancer; [4]): 1.76 ± 0.25 g; Body weight of the animals, end, First time (Lewis lung cancer; Lewis lung cancer, Dosage 100 (mg/ml)): 23.1 g; Body weight of the animals, beginning, First time (Lewis lung cancer; [5]): 20.7 g; Inhibition rate, First time (Lewis lung cancer; [5]): 34.16%; Weight of the tumor X ± SD, First time (Lewis lung cancer; [5]): 1.60 ± 0.19 g; Inhibition rate (%) Lewis cancer (Lewis lung cancer; comparison table 43, in vivo, Lewis lung cancer): 32.06%; Body weight of the animals, beginning, First time (S180 sarcoma; Dosage 50 (mg/ml)): 19.8 g; Body weight of the animals, end, First time (S180 sarcoma; Dosage 50 (mg/ml)): 26.7 g; Inhibition rate, First time (S180 sarcoma; Dosage 50 (mg/ml)): 24.43%; Weight of the tumor X ± SD, First time (S180 sarcoma; Dosage 50 (mg/ml)): 1.98 ± 0.28 g; Body weight of the animals, beginning, First time (S180 sarcoma; Dosage 100 (mg/ml)): 19.9 g; Body weight of the animals, end, First time (S180 sarcoma; Dosage 100 (mg/ml)): 25.5 g; Inhibition rate, First time (S180 sarcoma; Dosage 100 (mg/ml)): 32.06%; Weight of the tumor X ± SD, First time (S180 sarcoma; Dosage 100 (mg/ml)): 1.78 ± 0.20 g; Inhibition rate (%) S180 sarcomata (S180 sarcoma; comparison table 43, in vivo): 34.16%
2 | 2,9-diethyl-β-carbolinium bromate [Compound 88] | – | – | – | – | – | – | – | 630 µM | 860 µM | 2150 µM | 430 µM | 1310 µM | 1310 µM | 1200 µM | –
3 | NNC(=O)c1cc2c3ccccc3n(Cc3ccccc3)c2cn1 [Compound 52, 3-carbohydrazide-9-benzyl-β-carboline] | – | – | – | – | – | – | – | 220 µM | 250 µM | 250 µM | 140 µM | 270 µM | 60 µM | 520 µM | –
4 | CCCCOC(=O)c1cc2c(cn1)[nH]c1ccccc12 [Compound 18, butyl β-carboline-3-carboxylate] | 150 µM | 290 µM | 100 µM | 270 µM | 390 µM | 310 µM | 680 µM | – | – | – | – | – | – | – | –
5 | Nc1cc2c(cn1)[nH]c1ccccc12 [Compound 21, 3-amino-β-carboline] | 290 µM | 310 µM | 240 µM | 340 µM | 860 µM | 1570 µM | 570 µM | – | – | – | – | – | – | – | –
6 | CCOC(=O)c1cc2c3ccccc3n(Cc3c(F)c(F)c(F)c(F)c3F)c2cn1 [Compound 46, ethyl 9-(2′,3′,4′,5′,6′-pentafluoro)benzyl-β-carboline-3-carboxylate] | – | – | – | – | – | – | – | 60 µM | 980 µM | 40 µM | 120 µM | 50 µM | 10 µM | 50 µM | –
7 | NNC(=O)c1cc2c(cn1)[nH]c1ccccc12 [Compound 20, β-carboline-3-carbohydrazine] | – | – | – | – | – | – | 740 µM | – | – | – | – | – | – | – | IC50 (NIH3T3; NIH3T3, MTT, read-out: IC50): 320 µM; IC50 (Hela; Hela, MTT, read-out: IC50): 400 µM; IC50 (Lovo; Lovo, MTT, read-out: IC50): 310 µM; IC50 (HepG2; HepG2, MTT, read-out: IC50): 360 µM; IC50 (BGC-823; BGC823, MTT, read-out: IC50): 740 µM; IC50 (Bel-7402; BeI7402, MTT, read-out: IC50): 1430 µM
8 | 2,9-dibenzyl-β-carbolinium bromate [Compound 89] | – | – | – | – | – | – | – | 30 µM | 20 µM | 30 µM | 30 µM | 60 µM | 70 µM | 100 µM | –

Reference: patent US20090227619A1, “Harmine derivatives, intermediates used in their preparations, preparation processes and use therefo” (priority 2003, published 2009)
